This passage reports IC50 and melting point results from patent publication US20070059260A1, “Benzyl-1,3-thiazolidine-2,4-dione compounds for promoting and/or inducing and/or stimulating the pigmentation of keratin materials and/or for limiting their depigmentation and/or whitening” (L'OREAL, priority 2005, published 2007).

The target in series [1] is T1, Type-1 15-PGDH (Homo sapiens, UniProt P15428).
T1 construct: made in house
T1 sequence (P15428 1-266): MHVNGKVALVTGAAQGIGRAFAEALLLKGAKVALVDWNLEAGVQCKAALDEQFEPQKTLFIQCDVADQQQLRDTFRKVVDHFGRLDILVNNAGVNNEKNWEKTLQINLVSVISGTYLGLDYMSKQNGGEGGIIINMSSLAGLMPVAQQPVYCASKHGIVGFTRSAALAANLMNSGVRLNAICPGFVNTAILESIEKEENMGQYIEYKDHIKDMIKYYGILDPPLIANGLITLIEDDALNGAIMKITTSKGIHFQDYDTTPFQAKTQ
Briefly: Test on type-1 15-PGDH (spectrophotometric, NAD/PGE2, 340 nm). The class given is biochemical. The note with it: concentration reducing enzymatic activity of 15-PGDH by 50%; 37° C., pH 7.4 Tris buffer, 1.5 mM β-NAD, 50 μM Prostaglandin E2; read-out: IC50dh or % inhibition at 100 μM. On the procedure: The enzyme 15-PGDH is obtained as described in FR 02/05067 filed in the name of L'Oreal, as a suspension in a medium adjusted to a concentration of 0.3 mg/mL and then blocked at −80° C. For the purposes of the test, this suspension is thawed and stored in ice.
In parallel, a 100 mM, pH 7.4 Tris buffer containing 0.1 mM of dithiothreitol (D5545, Sigma-Aldrich, L'isle D'Abeau Chesne, BP 701, 38297, Saint Quentin Fallavier), 1.5 mM of β-NAD (N6522, Sigma-Aldrich, L'isle D'Abeau Chesne, BP 701, 38297, Saint Quentin Fallavier), and 50 μM of Prostaglandin E2 (P4172, Sigma-Aldrich, L'isle D'Abeau Chesne, BP 701, 38297, Saint Quentin Fallavier) is prepared.
0.965 ml of this buffer (brought to 37° C. beforehand) is introduced into the cuvette of a spectrophotometer (Perkin-Elmer, Lambda 2) thermostatically maintained at 37° C., the measuring wavelength of which is set at 340 nm. 0.035 mL of enzymatic suspension at 37° C. is introduced into the cuvette concomitantly with the recording (corresponding to an increase in the optical density at 340 nm). The maximum reaction rate is recorded.
The test values (containing the compounds of formula (I)) are compared with the control value (without compound of formula (I)); the results indicated represent either the percentage inhibition of the enzymatic activity of 15-PGDH for a given concentration of compound of formula (I), or the concentration at which the compound of formula (I) reduces the enzymatic activity of 15-PGDH by 50%, namely IC50dh.

In the case of `O=C1NC(=O)C(Cc2ccccc2Oc2ccccc2)S1` (centres unmarked) [Compound 3], the IC50 in series [1] came out at 2750 nM.

Usually melting point stands for the temperature, or range, at which the solid turns liquid. `O=C1NC(=O)C(Cc2ccccc2Oc2ccccc2)S1` (centres unmarked) [Example 1, 5-(2-phenoxybenzyl)-1,3-thiazolidine-2,4-dione] displayed a melting point of 84 to 85 °C.

Take `CC(C)(C)c1ccc(Oc2cccc(CC3SC(=O)NC3=O)c2)cc1` (centres unmarked) [Compound 5]: the IC50 in series [1] is 580 nM.

On to `CC(C)(C)c1ccc(Oc2ccccc2CC2SC(=O)NC2=O)cc1` (centres unmarked) [Compound 4, 5-[2-(4-tert-Butylphenoxy)benzyl]-1,3-thiazolidine-2,4-dione], for which, in series [1], the IC50 came to 400 nM.

For `O=C1NC(=O)C(Cc2ccccc2Oc2ccc(Cl)cc2Cl)S1` (centres unmarked) [Compound 2], the IC50 in series [1] was found to be 1210 nM.
